# Test results as given in publication PMC11589570, “Critical assessment of LC3/GABARAP ligands used for degrader development and ligandability of LC3/GABARAP binding pockets” (Nature Communications, 2024).
# Several values for one entry are separate records, joined by “and”; a condition that tells them apart may be missing. Equal entries are not always repeated.
# Columns and labels:
# [1] = molecular target: T1, LC3A (Homo sapiens, UniProt Q9H492); assay: FP assay with Cy5-labelled p62 LIR tracer (protein titration and tracer displacement); type: binding; conditions: two replicate columns per compound
# [2] = molecular target: GABARAP (Homo sapiens, UniProt O95166); assay: as above; type: binding; conditions: two replicate columns per compound
# [3] = molecular target: GABARAPL1 (Homo sapiens, UniProt Q9H0R8); assay: as above; type: binding; conditions: for compound titration GABARAPL1 (displacement curve, FP signal): two replicate columns per compound; for FP tracer displacement curve signal (compound titration): duplicate values, listed as KT3
# [4] = molecular target: T2, LC3B (Homo sapiens, UniProt Q9GZQ8); assay: as above; type: binding; conditions: for normalized FP signal, p62 LIR tracer displacement: LC3B; for compound titration LC3B (displacement curve, FP signal): two replicate columns per compound
# [5] = molecular target: LC3C (Homo sapiens, UniProt Q9BXW4); assay: as above; type: binding; conditions: two replicate columns per compound
# [6] = molecular target: T1, LC3A; assay: FP assay with 10O5- and 8F20-based dye-linked tracers 16 and 17; conditions: LC3A
# Description: (§2) The only experimental difference in our FP assay setup was the addition of 0.05% Tween-20, which is routinely used[27] to suppress unspecific binding of compounds to proteins.
# (§3) Fluorescence polarization assay utilizing tracers 16 and 17 for interaction studies with LC3A
# (§4) (upper panels) and LC3B (lower panels). The left panels depict protein titration measurements
# (§5) detergent in the buffer to suppress unspecific binding. Middle panels depict displacement
# Data were collected in technical
# (§6) triplicates with error bars expressing the SD (n=3).
# [7] = molecular target: T2, LC3B; assay: as above; conditions: LC3B
# Description: as §2, §3, §4, §5
# Data were collected in technical
# as §6
# [8] = molecular target: T3, NanoLuc-fusion full-length LC3A (Homo sapiens, UniProt Q9H492); assay: NanoBRET cellular target engagement assay in HEK293T cells; type: cell-based
# T3 construct: a fluorescent donor (in this case full length LC3A and LC3B); expressed in transfected cells; host or cells: HEK293T (ATCC; CRL-11268)
# Protocol: (§1) NanoBRET cellular target engagement assay: Constructs contained the cDNA of full-length LC3A and LC3B cloned in frame with an N-terminal NanoLuc-fusion. Plasmids were transfected into HEK293T (ATCC; CRL-11268) cells using FuGENE HD (Promega, E2312) and proteins were allowed to express for 20 h. 10O5 and 8F20-based tracers were titrated to the protein as depicted in Supplementary Fig. 4d. For competition experiments, 1 µM of the tracers was pipetted into white 384-well plates (Greiner 781 207) using an Echo 550 acoustic dispenser (Labcyte) containing LC3A/LC3B expressing transfected cells at a density of 2.5 × 10^5 cells/mL in Opti-MEM without phenol red (Life Technologies). The system was allowed to equilibrate for 2 h at 37 °C and 5% CO2 prior to BRET measurements. To measure BRET, NanoBRET NanoGlo Substrate + Extracellular NanoLuc Inhibitor (Promega, N2540) was added as per the manufacturer’s protocol, and filtered luminescence was measured on a PHERAstar plate reader (BMG Labtech) equipped with a luminescence filter pair (450 nm BP filter (donor) and 610 nm LP filter (acceptor)). Competitive displacement data were then plotted using GraphPad Prism 9.3 software using a normalized 3-parameter curve fit. A detailed step-by-step protocol for this assay is described in Schwalm..
# [9] = molecular target: T4, NanoLuc-fusion full-length LC3B (Homo sapiens, UniProt Q9GZQ8); assay: as above; type: cell-based
# T4 construct: a fluorescent donor (in this case full length LC3A and LC3B); expressed in transfected cells; host or cells: HEK293T (ATCC; CRL-11268)
# Protocol: as §1
# [10] = log10 concentration [M] -3.82391
# [11] = log10 concentration [M] -4.1549
# [12] = log10 concentration [M] -4.60206
# [13] = log10 concentration [M] -5.30103
# [14] = log10 concentration [M] -5.69897
# [15] = log10 concentration [M] -6.22185
# [16] = log10 concentration [M] -6.69897
# [17] = log10 concentration [M] -7.30103
# [18] = log10 concentration [M] -7.79588
# [19] = log10 concentration [M] -8.08092
# [20] = 0.05% Tween20 supplemented buffer
# LC3C, sequence (Q9BXW4 1-126): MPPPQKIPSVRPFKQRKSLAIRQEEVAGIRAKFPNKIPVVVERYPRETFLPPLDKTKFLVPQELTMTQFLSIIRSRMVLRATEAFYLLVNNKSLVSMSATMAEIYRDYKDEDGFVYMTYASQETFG
# GABARAP, sequence (O95166 1-116): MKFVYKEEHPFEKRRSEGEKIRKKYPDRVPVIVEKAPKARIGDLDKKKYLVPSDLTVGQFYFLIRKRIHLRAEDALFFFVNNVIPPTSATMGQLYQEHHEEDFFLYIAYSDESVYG
# GABARAPL1, sequence (Q9H0R8 whole entry): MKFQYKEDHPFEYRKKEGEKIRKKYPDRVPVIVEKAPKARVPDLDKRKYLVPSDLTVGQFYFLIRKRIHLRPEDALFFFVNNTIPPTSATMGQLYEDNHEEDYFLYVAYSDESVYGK
structure (smiles),measurement,setting,value
Cc1ccc(S(=O)(=O)Nc2cc(SCC(=O)O)c(O)c3ccccc23)c(C)c1 [compound 10],"compound titration LC3A (displacement curve, FP signal)",[1]; [10],94.4737 and 100
same,"compound titration LC3A (displacement curve, FP signal)",[1]; [11],97.6316 and 101.053
same,"compound titration LC3A (displacement curve, FP signal)",[1]; [12],101.579 and 103.947
same,"compound titration LC3A (displacement curve, FP signal)",[1]; log10 concentration [M] -5,101.842 and 104.737
same,"compound titration LC3A (displacement curve, FP signal)",[1]; [13],100.789 and 103.421
same,"compound titration LC3A (displacement curve, FP signal)",[1]; [14],102.895 and 93.1579
same,"compound titration LC3A (displacement curve, FP signal)",[1]; [15],105 and 102.368
same,"compound titration LC3A (displacement curve, FP signal)",[1]; [16],102.368 and 100
same,"compound titration LC3A (displacement curve, FP signal)",[1]; [17],104.211 and 92.8947
same,"compound titration LC3A (displacement curve, FP signal)",[1]; [18],101.579 and 94.2105
same,"compound titration LC3A (displacement curve, FP signal)",[1]; [19],105 and 96.5789
same,"compound titration GABARAP (displacement curve, FP signal)",[2]; [10],16.2069 and 14.4828
same,"compound titration GABARAP (displacement curve, FP signal)",[2]; [11],54.3103 and 56.3793
same,"compound titration GABARAP (displacement curve, FP signal)",[2]; [12],99.3103 and 96.0345
same,"compound titration GABARAP (displacement curve, FP signal)",[2]; log10 concentration [M] -5,94.4828 and 101.034
same,"compound titration GABARAP (displacement curve, FP signal)",[2]; [13],97.931 and 100.345
same,"compound titration GABARAP (displacement curve, FP signal)",[2]; [14],88.6207 and 93.1034
same,"compound titration GABARAP (displacement curve, FP signal)",[2]; [15],93.9655 and 97.069
same,"compound titration GABARAP (displacement curve, FP signal)",[2]; [16],96.7241 and 100.862
same,"compound titration GABARAP (displacement curve, FP signal)",[2]; [17],95.5172 and 99.1379
same,"compound titration GABARAP (displacement curve, FP signal)",[2]; [18],95.6897 and 96.8966
same,"compound titration GABARAP (displacement curve, FP signal)",[2]; [19],97.7586 and 100.69
same,"compound titration GABARAPL1 (displacement curve, FP signal)",[3]; [10],17.7143 and 20.8571
same,"compound titration GABARAPL1 (displacement curve, FP signal)",[3]; [11],50 and 53.2857
same,"compound titration GABARAPL1 (displacement curve, FP signal)",[3]; [12],99.5714 and 102.429
same,"compound titration GABARAPL1 (displacement curve, FP signal)",[3]; log10 concentration [M] -5,98.1429 and 100.714
same,FP tracer displacement curve signal (compound titration),[3]; [14],94.7143 and 94.1429
same,FP tracer displacement curve signal (compound titration),[3]; [15],100 and 100.429
same,FP tracer displacement curve signal (compound titration),[3]; [16],100.857 and 101.429
same,FP tracer displacement curve signal (compound titration),[3]; [17],101.857 and 99.1429
same,FP tracer displacement curve signal (compound titration),[3]; [18],100 and 94.7143
same,FP tracer displacement curve signal (compound titration),[3]; [19],101.714 and 99.2857
same,"normalized FP signal, p62 LIR tracer displacement",[4]; [10],54.7368 and 57.3684
same,"normalized FP signal, p62 LIR tracer displacement",[4]; [11],91.8421 and 94.4737
same,"normalized FP signal, p62 LIR tracer displacement",[4]; [12],99.4737 and 97.8947
same,"normalized FP signal, p62 LIR tracer displacement",[4]; log10 concentration [M] -5,98.6842 and 95
same,"normalized FP signal, p62 LIR tracer displacement",[4]; [13],95 and 96.0526
same,"normalized FP signal, p62 LIR tracer displacement",[4]; [14],96.5789 and 95.2632
same,"normalized FP signal, p62 LIR tracer displacement",[4]; [15],93.4211 and 99.4737
same,"normalized FP signal, p62 LIR tracer displacement",[4]; [16],97.3684 and 96.8421
same,"normalized FP signal, p62 LIR tracer displacement",[4]; [17],102.368 and 100.789
same,"normalized FP signal, p62 LIR tracer displacement",[4]; [18],96.3158 and 98.1579
same,"normalized FP signal, p62 LIR tracer displacement",[4]; [19],102.632 and 92.6316
same,"compound titration LC3B (displacement curve, FP signal)",[4]; [10],54.7368 and 57.3684
same,"compound titration LC3B (displacement curve, FP signal)",[4]; [11],91.8421 and 94.4737
same,"compound titration LC3B (displacement curve, FP signal)",[4]; [12],99.4737 and 97.8947
same,"compound titration LC3B (displacement curve, FP signal)",[4]; log10 concentration [M] -5,98.6842 and 95
same,"compound titration LC3B (displacement curve, FP signal)",[4]; [13],95 and 96.0526
same,"compound titration LC3B (displacement curve, FP signal)",[4]; [14],96.5789 and 95.2632
same,"compound titration LC3B (displacement curve, FP signal)",[4]; [15],93.4211 and 99.4737
same,"compound titration LC3B (displacement curve, FP signal)",[4]; [16],97.3684 and 96.8421
same,"compound titration LC3B (displacement curve, FP signal)",[4]; [17],102.368 and 100.789
same,"compound titration LC3B (displacement curve, FP signal)",[4]; [18],96.3158 and 98.1579
same,"compound titration LC3B (displacement curve, FP signal)",[4]; [19],102.632 and 92.6316
same,"compound titration LC3C (displacement curve, FP signal)",[5]; [10],22.4 and 20.2
same,"compound titration LC3C (displacement curve, FP signal)",[5]; [11],56.4 and 57.6
same,"compound titration LC3C (displacement curve, FP signal)",[5]; [12],96.2 and 100.8
same,"compound titration LC3C (displacement curve, FP signal)",[5]; log10 concentration [M] -5,96.2 and 98.8
same,"compound titration LC3C (displacement curve, FP signal)",[5]; [13],97.8 and 100.6
same,"compound titration LC3C (displacement curve, FP signal)",[5]; [14],90 and 87.6
same,"compound titration LC3C (displacement curve, FP signal)",[5]; [15],95.8 and 98.8
same,"compound titration LC3C (displacement curve, FP signal)",[5]; [16],98.6 and 99.4
same,"compound titration LC3C (displacement curve, FP signal)",[5]; [17],79.6 and 99.8
same,"compound titration LC3C (displacement curve, FP signal)",[5]; [18],95.2 and 97.2
same,"compound titration LC3C (displacement curve, FP signal)",[5]; [19],99 and 100.4
"Cc1ccc(C(=O)N(CCCNC(=O)CCOCCOCCOCCNC(=O)CCc2ccc3n2[B-](F)(F)[N+]2=C(c4ccc[nH]4)C=CC2=C3)[C@@H](c2nc3cc(Cl)ccc3c(=O)n2Cc2ccccc2)C(C)C)cc1 [compound 17, (R)-N-(1-(3-benzyl-7-chloro-4-oxo-3,4-dihydroquinazolin-2-yl)−2-methylpropyl)-N-(1-(5,5-difluoro-7-(1H-pyrrol-2-yl)−5H−5l4,6l4-dipyrrolo[1,2-c:2’,1’-f][1,3,2]diazaborinin-3-yl)−3,16-dioxo-7,10,13-trioxa-4,17-diazaicosan-20-yl)−4-methylbenzamide]",tracer binding in repeated protein titration,[6]; [20],completely abolishing the putative binding
same,tracer affinity (protein titration for tracer KD),[6]; buffer lacking detergent,nanomolar
same,tracer binding in repeated protein titration,[7]; [20],completely abolishing the putative binding
same,tracer affinity (protein titration for tracer KD),[7]; buffer lacking detergent,nanomolar
same,NanoBRET signal / tracer displacement,"[8]; LC3A, 1 µM tracer, compound 4 for tracer 16, compound 3 for tracer 17",no BRET signal
same,maximum BRET increase in tracer titration,[8]; NanoLuciferase-tagged LC3A,~ 1.3 fold
same,NanoBRET signal / tracer displacement,"[9]; LC3B, 1 µM tracer, compound 4 for tracer 16, compound 3 for tracer 17",no BRET signal
same,maximum BRET increase in tracer titration,[9]; NanoLuciferase-tagged LC3B,~ 1.3 fold
